Experimental data published in patent publication US8835403B2, “Algin oligosaccharides and the derivatives thereof as well as the manufacture and the use of the same” (priority 2004, dated 2014).

Legend:
[1] = system: AD mice induced by Aβ1-40; experiment: Step-through passive avoidance task of AD mice induced by Aβ1-40; type: in vivo
Description: Male Balb/c mice (18-22 g, purchased from Laboratory Centre of Shandong University) are weighed and randomly assigned to six groups as follows: a control group, a model group, a low-concentration (15 mg/kg) 6-mer-treated group, a middle-concentration (30 mg/kg) 6-mer-treated group, a high-concentration (60 mg/kg) 6-mer-treated group, and a Huperzine A-treated (HBY, with a concentration of 0.2 mg/kg) group. The mice were oral administered with corresponding drugs on day 3 after grouping. The drugs were administered once a day consecutively with a dosage of 0.5 ml/20 g until the experiment is completed. The mice of control and model groups were simultaneously administered with an equivalent amount of normal saline.
On the 25th day after Aβ injection, mice are further trained for step-through passive avoidance task. In the task, each mouse is placed in the illuminated compartment of the apparatus, facing away from the dark compartment, and the door is opened, allowing access to the dark compartment. Once the mouse enters the dark compartment, it receives an inescapable electric shock on the feet (36 V) through the stainless steel grid floor. The test is similarly performed after 24 h. The entry time of each mouse into the dark chamber (step-through latency, maximum testing limited to 3 min) and the number of entries into the dark compartment (number of errors) are recorded.
Each group has 8 animals. The data are presented as mean±SE. The symbol # means significant difference compared with the control group (P<0.05). * means significant difference compared with the model group (P<0.05). The step-through latency of Aβ1-40-treated group is shortened (P<0.01) and the error number is increased (P<0.05) compared with that of the control group, indicating the successful establishment of AD mice.

SH-SY5Y cells = experiment: Protection of SH-SY5Y cells impaired by Aβ25-35 and Aβ1-40; type: cell-based; conditions: 50 and 100 μg/ml; 30 μM aged Aβ25-35 or 2 μM Aβ1-40 for 48 h (FIG. 7, 8)
Description: 6-mer has similar protective effects on neuron cell line SH-SY5Y as the primary neurons. SH-SY5Y impaired with 30 μM of aged Aβ25-35 (FIG. 7) and 2 μM of Aβ1-40 (FIG. 8) for 48 h could induce a series of changes, for example, damage to the cells, reduced number of cells, occurrence of some round cells and suspension cells. Further, the survival rate of the cells is reduced to 73.3±9.4% and 64.1±2.5% respectively.

[2] = system: diabetic mice induced by STZ; experiment: Blood glucose of diabetic mice induced by streptozotocin (STZ); type: in vivo; conditions: blood on 11th day, STZ 150 mg/kg i.p.
Description: Sixty male NIH mice (weighed 18-22 g) are randomly divided to control, model, 50, 150, 450 mg/kg 6-mer-treated and 5 mg/kg dimethyldiguanide-treated groups. The mice are injected intraperitoneally with 150 mg/kg STZ except control group at the 1st day. Then the mice are given accordingly drugs consecutively for 10 days and eyeballs are picked out to extract blood on the 11th day. The blood is taken to measure the glucose concentration.

Aβ1-40 [3] = molecular target: T1, Aβ1-40 (Homo sapiens, UniProt P05067); experiment: Fibril formation of Aβ1-40, Th-T fluorescence; type: biochemical; conditions: 24 h
Description: Fresh Aβ1-40 is incubated alone or with 6-mer (final concentration of 10, 50, and 100 μg/ml, respectively) at 37° C. for 24 h. After incubation, Th-T is added and fluorescence intensity is monitored at […].

Aβ1-40 [4] = molecular target: T1, Aβ1-40; experiment: Fibril formation of Aβ1-40 studied with TEM; type: biochemical
GSH-PX = GSH-PX activity in cerebral cortex and hippocampus of Aβ1-40-induced AD mice; type: in vivo
Description: Following the behavioral test, rats are decapitated. Cerebral cortex and hippocampus are dissected on ice immediately, and stored at −80° C. after quick freezing in liquid nitrogen for 1 hour. MDA, SOD, GSH-PX, Na^+, K^+-ATPase, AchE and CHAT activities in the brain regions are determined using the respective kits. The homogenates of cerebral cortex and hippocampus are prepared with saline with a final concentration of 10% and 5%. The supernatant were obtained after centrifuging at 3600 rpm to test MDA, CuZn-SOD, GSH-PX, Na^+K^+-ATPase, AchE, and CHAT activities. The activity of ChAT is determined with isotope-labeled method. The other indexes and amount of total proteins are tested with the respective kits supplied by Nanjing Jiancheng Bioengineering Institute.
The GSH-PX activity in cerebral cortex and hippocampus is decreased after usage of Aβ with significant difference to the control group in hippocampus (p<0.05).

[5] = system: apoptotic cascade induced by Aβ; experiment: Apoptotic cascade markers induced by Aβ; type: cell-based
Aβ1-40 [6] = molecular target: T1, Aβ1-40; experiment: SPR interaction of immobilized 6-mer and aged Aβ1-40; type: binding
Description: SPR technique (BIAcore X, Uppsala, Sweden) is used to characterize the interaction of 6-mer and Aβ. Different degree of aged Aβ1-40 (aged for 0, 0.5, 1, 2, 4, 6 d at 37° C.) in HBS EP buffer solution (0.01 […], 150 mmol/L NaCl, 3.4 mmol/L EDTA-Na2, 0.005 vol % Tween-20, pH 7.4) with 5 concentrations are flowed through the 6-mer-immobilized sensor chip. The flow rate is 5 μl/min, and the injection volume is 10 μl. The binding sensorgramm is recorded and the sensor chip is regenerated with 2M NaCl.

T1 sequence (P05067 672-711 limits assumed): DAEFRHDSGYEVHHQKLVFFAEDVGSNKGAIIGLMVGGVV

O=C(O)C1OC(OC2C(C(=O)O)OC(OC3C(C(=O)O)OC(OC4C(C(=O)O)OC(OC5C(C(=O)O)OC(OC6C(C(=O)O)OC(O)C(O)C6O)C(O)C5O)C(O)C4O)C(O)C3O)C(O)C2O)C(O)C(O)C1O (stereo not drawn) [6-mer, mannuronic hexasaccharide]
number of errors ([1]; 6-mer-treated groups, vs model group (FIG. 6)): significantly reduced
step-through latency ([1]; 30 and 60 mg/kg 6-mer, vs model group (FIG. 5)): significantly prolonged
neurotoxicity of Aβ (survival rate, suspension cells) (SH-SY5Y cells): significantly inhibit the neurotoxicity of Aβ
Blood glucose concentration ([2]; 50 mg/kg for 10 days): 219.4 ± 67.8 mg/dL
Blood glucose concentration ([2]; 150 mg/kg for 10 days): 179.6 ± 69.8 mg/dL
Blood glucose concentration ([2]; 450 mg/kg for 10 days): 162.5 ± 3 mg/dL
Th-T fluorescence intensity (Aβ1-40 [3]; 10 μg/ml 6-mer with fresh Aβ1-40, 37° C.): 10.46±0.94
Th-T fluorescence intensity (Aβ1-40 [3]; 50 μg/ml 6-mer with fresh Aβ1-40, 37° C.): 9.18±1.32
Th-T fluorescence intensity (Aβ1-40 [3]; 100 μg/ml 6-mer with fresh Aβ1-40, 37° C.): 7.81±1.38
fibril formation of Aβ1-40 (TEM) (Aβ1-40 [4]; incubation 24 h and 48 h (FIG. 9)): significantly inhibit the fibril formation of Aβ1-40
fibril formation of Aβ1-40 facilitated by heparin (TEM) (Aβ1-40 [4]; with heparin, 24 h and 48 h (FIG. 9)): significant inhibitory effect
GSH-PX (U/mg prot.) cerebral cortex (GSH-PX; 15 mg/kg): 8.53 ± 0.86 U/mg prot.
GSH-PX (U/mg prot.) cerebral cortex (GSH-PX; 30 mg/kg): 7.12 ± 1.10 U/mg prot.
GSH-PX (U/mg prot.) cerebral cortex (GSH-PX; 60 mg/kg): 10.75 ± 1.80 U/mg prot.
GSH-PX (U/mg prot.) hippocampus (GSH-PX; 15 mg/kg): 4.13 ± 0.58 U/mg prot.
GSH-PX (U/mg prot.) hippocampus (GSH-PX; 30 mg/kg): 4.25 ± 0.54 U/mg prot.
GSH-PX (U/mg prot.) hippocampus (GSH-PX; 60 mg/kg): 4.81 ± 0.95 U/mg prot.
expression of Bcl-2 [5]: up-regulating
expression of Caspase-3 [5]: down-regulating
expression of P53 [5]: down-regulating
overload of intracellular calcium ion and ROS accumulation [5]: reversing
Kd (Aβ1-40 [6]; Aβ1-40 aged 0.5 d at 37° C.): 107 nM
Kd (Aβ1-40 [6]; Aβ1-40 aged 1 d at 37° C.): 90.6 nM
Kd (Aβ1-40 [6]; Aβ1-40 aged 2 d at 37° C.): 54.3 nM
Kd (Aβ1-40 [6]; Aβ1-40 aged 4 d at 37° C.): 21.5 nM
Kd (Aβ1-40 [6]; Aβ1-40 aged 6 d at 37° C.): 14.5 nM
Kd (Aβ1-40 [6]; fresh Aβ1-40 (aged 0 d)): 685 nM
